Read-outs that look alike come from different tables or passages of the source.
Assays:
E. coli gyrase = biological target: T1, E. coli gyrase (Escherichia coli, UniProt P0AES4+P0AES6); assay: Gyrase supercoiling (inhibition) assay; assay type: biochemical
T1 construct: purchased Inspiralis (Norwich, UK)
Procedure: To test the anti-gyrase activity of cystobactamides, commercial E. coli gyrase supercoiling kits (Inspiralis) were used.
For IC50 determination the band intensity of the supercoiled plasmid was determined using Adobe Photoshop, plotted vs. [cystobactamide] and fitted using Hill's equation.
All natural products stock solutions and dilutions were prepared in 100% DMSO and added to the supercoiling reactions giving a final DMSO concentration of 5% (v/v).
(§1) Following natural product concentrations were used in the assay:
Control reactions were: no enzyme and a standard reaction in presence of 5% (v/v) DMSO.
All reaction samples were equilibrated for 10 minutes at room-temperature in the absence of DNA. Then the relaxed plasmid was added to start the reaction.
To determine IC50 values, the formation of supercoiled (gyrase) or relaxed (topoisomerase I, II IV) plasmid was quantified using Adobe Photoshop (Histogram mode). […] All determined IC50 values are the averages of three independent experiments.

E. coli topoisomerase IV = biological target: T2, E. coli topoisomerase IV (Escherichia coli, UniProt P0AFI2+P20083); assay: Topoisomerase IV relaxation (inhibition) assay; assay type: biochemical
T2 construct: purchased Inspiralis (Norwich, UK)
Procedure: Prokaryotic DNA gyrase and topoisomerase IV share a high degree of homology and gyrase inhibitors typically show a topoisomerase IV inhibitory activity.^8 To test the influence of the cystobactamides on topoisomerase IV a commercial E. coli topoisomerase IV kit (Inspiralis) was used.
The topo IV reactions were titrated with varying concentrations of A-D and resolved by agarose gel electrophoresis. For IC50 determination the band intensity of the supercoiled plasmid was determined using Adobe Photoshop, plotted vs. [cystobactamide] and fitted using Hill's equation.
as §1
(§2) Control reactions were: no enzyme and a standard reaction in presence of 5% (v/v) DMSO. All reaction samples were equilibrated for 10 minutes at room-temperature in the absence of DNA. Then the relaxed plasmid was added to start the reaction.
(§3) To determine IC50 values, the formation of supercoiled (gyrase) or relaxed (topoisomerase I, II IV) plasmid was quantified using Adobe Photoshop (Histogram mode). Plotting of these values versus the compound concentration yielded sigmoidal shaped curves, which were fitted using Hill's equation (Origin Pro 8.5). All determined IC50 values are the averages of three independent experiments.

[1] = biological target: T3, H. sapiens topoisomerase II (Homo sapiens, UniProt P11388); assay: Topoisomerase II relaxation (inhibition) assay; assay type: biochemical; conditions: read-out: IC50, human topo II
T3 construct: purchased Inspiralis (Norwich, UK)
Procedure: The topo II reactions were titrated with varying concentrations of A-D and resolved by agarose gel electrophoresis. For IC50 determination the band intensity of the supercoiled plasmid was determined using Adobe Photoshop, plotted vs. [cystobactamide] and fitted using Hill's equation.
as §1, §2, §3

[2] = biological target: T4, H. sapiens topoisomerase I (Homo sapiens, UniProt P11387); assay: Topoisomerase I relaxation (inhibition) assay; assay type: biochemical
T4 construct: purchased Inspiralis (Norwich, UK)
T4 sequence (P11387 1-765): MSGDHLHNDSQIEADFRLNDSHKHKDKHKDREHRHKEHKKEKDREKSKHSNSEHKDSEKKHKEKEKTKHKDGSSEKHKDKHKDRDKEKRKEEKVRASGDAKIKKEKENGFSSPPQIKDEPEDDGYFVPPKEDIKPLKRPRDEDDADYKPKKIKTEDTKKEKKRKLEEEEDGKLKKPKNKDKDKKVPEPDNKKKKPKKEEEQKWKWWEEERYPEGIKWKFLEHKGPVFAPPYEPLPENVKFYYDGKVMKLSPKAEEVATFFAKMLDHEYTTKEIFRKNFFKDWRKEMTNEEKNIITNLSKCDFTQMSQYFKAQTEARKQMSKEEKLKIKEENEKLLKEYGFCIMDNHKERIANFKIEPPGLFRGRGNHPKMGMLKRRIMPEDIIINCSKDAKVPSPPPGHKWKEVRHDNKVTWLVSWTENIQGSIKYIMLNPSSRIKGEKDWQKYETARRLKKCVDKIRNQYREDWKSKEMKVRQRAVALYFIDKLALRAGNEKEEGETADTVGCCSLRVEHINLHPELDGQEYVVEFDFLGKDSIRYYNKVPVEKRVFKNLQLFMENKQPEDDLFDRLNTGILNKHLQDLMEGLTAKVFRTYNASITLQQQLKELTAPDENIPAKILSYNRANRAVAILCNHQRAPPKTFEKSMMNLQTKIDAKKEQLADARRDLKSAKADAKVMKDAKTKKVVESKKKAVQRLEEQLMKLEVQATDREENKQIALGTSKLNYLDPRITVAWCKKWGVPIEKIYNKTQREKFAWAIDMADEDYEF
Procedure: Aside the ATP-dependent type IIa topoisomerases like E. coli gyrase, topoIV and human topoII, the activity of cystobactamides on the ATP-independent human topoisomerase I was tested as well.
The topo I reactions were titrated with varying concentrations of A-D and resolved by agarose gel electrophoresis. For IC50 determination the band intensity of the supercoiled plasmid was determined using Adobe Photoshop, plotted vs. [cystobactamide] and fitted using Hill's equation.
as §1
Cystobactamide C: 300 μM; 30 μM; 3 μM
Control reactions were: no enzyme and a standard reaction in presence of 5% (v/v) DMSO. All reaction samples were equilibrated for 10 minutes at room-temperature in the absence of DNA. Then the relaxed plasmid was added to start the reaction
as §3

DNA/gyrase complex = DNA/gyrase complex (Escherichia coli, UniProt P0AES4+P0AES6); conditions: cystobactamide D 18 μM, ciprofloxacin 1 μM
Procedure: (§4) (B) Here, standard gyrase reactions were inhibited using a constant amount of cystobactamide D and titrated with increasing amounts of ATP. If ATP and cystobactamide D would compete for binding at the ATP binding pocket on the gyrase GyrB subunit, increasing amounts of ATP would lead to the formation of supercoiled plasmid in the assay.
To test if cystobactamides stabilize the covalent complex between DNA gyrase and the nicked DNA substrate, proteinase K linearization assay were performed (see a). […] To detect linearized plasmid bands the relaxed plasmid was digested by the single-cutting restriction enzyme Ndel.

[3] = biological target: ATP binding pocket on GyrB of E. coli gyrase (Escherichia coli, UniProt P0AES4+P0AES6); conditions: constant cystobactamide D; ATP up to 10 mM (2000 fold cystobactamide concentration)
Chain of ATP binding pocket on GyrB of E. coli gyrase (P0AES4 whole entry, one chain of several): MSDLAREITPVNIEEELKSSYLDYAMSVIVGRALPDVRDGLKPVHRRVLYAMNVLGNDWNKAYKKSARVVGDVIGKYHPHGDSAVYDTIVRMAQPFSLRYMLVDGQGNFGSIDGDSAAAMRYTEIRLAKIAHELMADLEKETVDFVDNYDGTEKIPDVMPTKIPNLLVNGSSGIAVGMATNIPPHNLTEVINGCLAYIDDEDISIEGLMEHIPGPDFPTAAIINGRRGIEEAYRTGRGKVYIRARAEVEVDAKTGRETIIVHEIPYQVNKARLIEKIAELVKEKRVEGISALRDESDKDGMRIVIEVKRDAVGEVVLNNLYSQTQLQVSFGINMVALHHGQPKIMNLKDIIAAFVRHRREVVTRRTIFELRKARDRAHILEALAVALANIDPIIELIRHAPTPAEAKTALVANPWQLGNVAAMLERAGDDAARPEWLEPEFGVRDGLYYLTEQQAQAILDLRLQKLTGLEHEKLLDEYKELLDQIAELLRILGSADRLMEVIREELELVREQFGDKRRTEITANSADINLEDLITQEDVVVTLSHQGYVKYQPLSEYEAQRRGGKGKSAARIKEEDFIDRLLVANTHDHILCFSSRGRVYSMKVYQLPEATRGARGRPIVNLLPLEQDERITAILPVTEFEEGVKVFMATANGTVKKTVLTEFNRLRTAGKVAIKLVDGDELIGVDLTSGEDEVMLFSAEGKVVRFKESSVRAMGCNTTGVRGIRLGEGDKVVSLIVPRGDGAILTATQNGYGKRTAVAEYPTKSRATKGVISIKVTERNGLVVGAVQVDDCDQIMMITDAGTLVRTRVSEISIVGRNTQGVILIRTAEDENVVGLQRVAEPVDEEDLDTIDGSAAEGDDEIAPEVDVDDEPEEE
Text: as §4
To test if cystobactamides compete with ATP for binding to the ATP binding pocket on GyrB, standard gyrase supercoiling assays (see a) with varying ATP concentrations were performed. Standard reaction mixes (1 mM ATP) were supplemented with ATP (0.5M ATP stock solution, ATP was purchased from Sigma-Aldrich) to final ATP concentrations of 2.5; 5 and 10 mM. All reactions were performed in triplicates.

T2 sequence (P20083 whole entry): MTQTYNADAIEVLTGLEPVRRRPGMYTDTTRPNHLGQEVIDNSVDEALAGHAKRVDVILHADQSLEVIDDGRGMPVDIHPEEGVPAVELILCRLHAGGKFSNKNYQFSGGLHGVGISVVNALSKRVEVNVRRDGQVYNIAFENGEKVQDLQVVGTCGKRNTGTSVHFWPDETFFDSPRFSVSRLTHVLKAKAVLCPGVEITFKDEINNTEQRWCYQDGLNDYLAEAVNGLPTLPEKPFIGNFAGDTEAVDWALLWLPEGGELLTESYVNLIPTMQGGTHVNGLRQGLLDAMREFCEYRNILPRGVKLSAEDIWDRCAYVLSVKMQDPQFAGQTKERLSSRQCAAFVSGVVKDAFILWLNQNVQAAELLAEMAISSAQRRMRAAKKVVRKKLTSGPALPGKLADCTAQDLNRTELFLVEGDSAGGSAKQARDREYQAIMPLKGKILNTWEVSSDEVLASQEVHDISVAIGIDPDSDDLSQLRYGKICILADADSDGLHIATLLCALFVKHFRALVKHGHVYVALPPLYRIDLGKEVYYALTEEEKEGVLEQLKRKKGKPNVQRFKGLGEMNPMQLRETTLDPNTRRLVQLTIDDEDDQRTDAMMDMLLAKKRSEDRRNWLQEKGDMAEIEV
T2 sequence (P0AFI2 whole entry): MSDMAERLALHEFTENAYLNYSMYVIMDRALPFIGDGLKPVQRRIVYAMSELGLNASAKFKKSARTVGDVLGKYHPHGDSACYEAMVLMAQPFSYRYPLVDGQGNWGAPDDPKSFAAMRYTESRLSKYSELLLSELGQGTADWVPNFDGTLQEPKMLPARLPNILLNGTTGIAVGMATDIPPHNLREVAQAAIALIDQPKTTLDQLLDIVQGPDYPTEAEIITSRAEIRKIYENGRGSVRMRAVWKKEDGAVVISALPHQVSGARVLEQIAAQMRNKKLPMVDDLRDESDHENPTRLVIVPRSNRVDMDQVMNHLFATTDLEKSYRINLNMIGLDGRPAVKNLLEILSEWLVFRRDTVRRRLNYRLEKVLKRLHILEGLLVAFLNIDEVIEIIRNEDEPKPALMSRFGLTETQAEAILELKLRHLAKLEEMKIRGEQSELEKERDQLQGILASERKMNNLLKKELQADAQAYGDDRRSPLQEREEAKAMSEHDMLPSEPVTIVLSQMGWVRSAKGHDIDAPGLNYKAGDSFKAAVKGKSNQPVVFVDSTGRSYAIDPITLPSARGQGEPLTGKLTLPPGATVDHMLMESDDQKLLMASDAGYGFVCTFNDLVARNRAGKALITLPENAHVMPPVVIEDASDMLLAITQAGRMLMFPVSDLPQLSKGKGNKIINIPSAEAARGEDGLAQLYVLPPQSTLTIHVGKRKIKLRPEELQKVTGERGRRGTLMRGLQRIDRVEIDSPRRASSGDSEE
T1 sequence (P0AES4 whole entry, one chain of several): as the sequence (P0AES4 whole entry, one chain of several) above
T3 sequence (P11388 whole entry): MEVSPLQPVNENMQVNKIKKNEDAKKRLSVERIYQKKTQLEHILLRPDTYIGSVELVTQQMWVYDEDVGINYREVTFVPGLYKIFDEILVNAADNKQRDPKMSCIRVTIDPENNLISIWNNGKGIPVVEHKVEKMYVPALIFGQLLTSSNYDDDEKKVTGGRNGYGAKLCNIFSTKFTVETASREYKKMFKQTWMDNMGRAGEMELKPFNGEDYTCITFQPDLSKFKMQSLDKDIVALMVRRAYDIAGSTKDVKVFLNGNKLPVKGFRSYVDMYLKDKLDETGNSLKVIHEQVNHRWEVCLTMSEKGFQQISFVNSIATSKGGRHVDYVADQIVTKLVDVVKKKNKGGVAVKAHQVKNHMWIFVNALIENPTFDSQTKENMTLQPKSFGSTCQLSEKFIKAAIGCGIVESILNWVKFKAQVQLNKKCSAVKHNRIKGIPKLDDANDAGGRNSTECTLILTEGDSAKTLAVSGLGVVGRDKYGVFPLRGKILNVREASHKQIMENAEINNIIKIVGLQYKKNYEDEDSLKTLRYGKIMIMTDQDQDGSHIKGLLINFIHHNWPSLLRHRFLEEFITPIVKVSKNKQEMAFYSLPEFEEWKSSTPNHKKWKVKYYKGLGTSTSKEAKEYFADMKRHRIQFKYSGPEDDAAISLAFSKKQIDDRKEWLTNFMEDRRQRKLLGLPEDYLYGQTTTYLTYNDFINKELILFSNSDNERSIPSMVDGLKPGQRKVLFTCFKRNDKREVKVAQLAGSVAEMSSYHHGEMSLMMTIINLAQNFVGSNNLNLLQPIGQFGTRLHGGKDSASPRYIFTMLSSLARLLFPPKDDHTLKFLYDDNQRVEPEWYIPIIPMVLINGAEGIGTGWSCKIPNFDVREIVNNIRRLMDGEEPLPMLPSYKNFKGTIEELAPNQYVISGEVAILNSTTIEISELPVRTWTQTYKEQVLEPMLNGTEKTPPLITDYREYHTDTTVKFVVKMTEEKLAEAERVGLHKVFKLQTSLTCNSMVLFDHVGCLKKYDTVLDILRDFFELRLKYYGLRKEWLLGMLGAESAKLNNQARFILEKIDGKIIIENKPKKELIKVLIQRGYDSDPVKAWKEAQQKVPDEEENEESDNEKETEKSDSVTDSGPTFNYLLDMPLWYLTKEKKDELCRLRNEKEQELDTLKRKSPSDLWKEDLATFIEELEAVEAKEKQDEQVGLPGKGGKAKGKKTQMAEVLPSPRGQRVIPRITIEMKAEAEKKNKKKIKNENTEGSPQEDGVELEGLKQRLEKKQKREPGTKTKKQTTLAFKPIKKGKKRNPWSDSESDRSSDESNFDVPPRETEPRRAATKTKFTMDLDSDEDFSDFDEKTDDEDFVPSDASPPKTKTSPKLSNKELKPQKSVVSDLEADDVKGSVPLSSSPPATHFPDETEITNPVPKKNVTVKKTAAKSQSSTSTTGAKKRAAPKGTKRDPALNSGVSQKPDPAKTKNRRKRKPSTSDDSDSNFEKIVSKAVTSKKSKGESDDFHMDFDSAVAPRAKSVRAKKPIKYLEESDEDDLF

Structure (SMILES): COc1cc(C(=O)O)ccc1NC(=O)c1ccc(NC(=O)c2ccc(NC(=O)C(NC(=O)c3ccc(NC(=O)c4ccc([N+](=O)[O-])cc4)cc3)C(OC)C(N)=O)cc2)c(OC)c1O (stereo not shown) [cystobactamide D]
- IC50 (E. coli gyrase; E. coli gyrase 20.5 nM eq. 1 unit, read-out: apparent IC50, E. coli gyrase): 1 µM
- IC50 (E. coli gyrase; E. coli gyrase, read-out: IC50 gyrase): 0.7 µM
- IC50 (E. coli gyrase; table, averages of three independent experiments, read-out: IC50 in the Gyrase inhibition assay): 0.7 µM
- IC50 (E. coli topoisomerase IV; E. coli topoisomerase IV, read-out: IC50 Topo IV): 10 µM
- IC50 (E. coli topoisomerase IV; averages of three independent experiments, read-out: IC50 in the E. coli Topoisomerase IV inhibition assay): 10 µM
- ratios IC50(topo IV)/IC50(gyrase) (E. coli topoisomerase IV; topo IV vs. gyrase): ~14
- IC50 [1]: 41.2 µM
- IC50 [2]: ~33.6 µM
- formation of linearized plasmid after proteinase K treatment (DNA/gyrase complex): formation of linearized plasmid
- regain of gyrase activity on titration with ATP [3]: the gyrase activity is not regained

From US11225503B2, “Crystobactamides” (HELMHOLTZ-ZENTRUM FÜR INFEKTIONSFORSCHUNG GMBH, priority 2013, dated 2022)
